Organism: Rattus norvegicus
Test: Open TG-GATES - Regimen: Daily Repeat
Format: toxicity, organism-based, Sprague-Dawley
Parameters: regimen Daily Repeat, gender Male, age 6 weeks
Conditions: in vivo, po, 0 mg/kg, […], route gavage, dose level Control; for KIDNEY_L / KIDNEY_R / KIDNEY_TOTAL: tissue Kidney; for LIVER: tissue Liver; for A/G / ALP / ALT / AST / BUN / CRE / Ca / Cl / DBIL / GLC / IP / K / LDH / Na / PL / RALB / TBIL / TC / TG / TP / gamma-GTP: tissue Plasma

O=C(O)c1ccccc1Nc1ccccc1 [FENAMIC ACID]
Fbg (tissue Blood, time 28 day): 296 mg/dL
Hb (tissue Blood, time 28 day): 14.9 g/dL
Ht (tissue Blood, time 28 day): 43%
Lym (tissue Blood, time 28 day): 79.2%
MCH (tissue Blood, time 28 day): 19.4 pg
MCHC (tissue Blood, time 28 day): 34.6%
MCV (tissue Blood, time 28 day): 55.9 fL
Mono (tissue Blood, time 28 day): 1.6%
Neu (tissue Blood, time 28 day): 17.2%
PT (tissue Blood, time 28 day): 14.2 s
Plat (tissue Blood, time 28 day): 104.1 x10_4/uL
RBC (tissue Blood, time 28 day): 768.8 x10_4/ul
Ret (tissue Blood, time 28 day): 2.7%
WBC (tissue Blood, time 28 day): 92.6 x10_2/uL
KIDNEY_L (time 7 day): 1.1 g
KIDNEY_R (time 7 day): 1.1 g
KIDNEY_TOTAL (time 7 day): 2.2 g
KIDNEY_L (time 14 day): 1.3 g
KIDNEY_R (time 14 day): 1.3 g
KIDNEY_TOTAL (time 14 day): 2.5 g
KIDNEY_L (time 28 day): 1.5 g
KIDNEY_R (time 28 day): 1.5 g
KIDNEY_TOTAL (time 28 day): 2.9 g
LIVER (time 7 day): 12.7 g
LIVER (time 14 day): 14.7 g
LIVER (time 28 day): 17 g
A/G (time 7 day): 0.9
ALP (time 7 day): 1493 IU/L
ALT (time 7 day): 38 IU/L
AST (time 7 day): 68.4 IU/L
BUN (time 7 day): 14.2 mg/dL
CRE (time 7 day): 0.2 mg/dL
Ca (time 7 day): 11.4 mg/dL
Cl (time 7 day): 106.2 meq/L
DBIL (time 7 day): 0.01 mg/dL
GLC (time 7 day): 190.4 mg/dL
IP (time 7 day): 6.7 mg/dL
K (time 7 day): 4.3 meq/L
LDH (time 7 day): 105 IU/L
Na (time 7 day): 143.2 meq/L
PL (time 7 day): 148.4 mg/dL
RALB (time 7 day): 2.6 g/dL
TBIL (time 7 day): 0.03 mg/dL
TC (time 7 day): 73 mg/dL
TG (time 7 day): 119.4 mg/dL
TP (time 7 day): 5.7 g/dL
gamma-GTP (time 7 day): 1 IU/L
A/G (time 14 day): 0.8
ALP (time 14 day): 1698.4 IU/L
ALT (time 14 day): 36 IU/L
AST (time 14 day): 63.2 IU/L
BUN (time 14 day): 13.8 mg/dL
CRE (time 14 day): 0.3 mg/dL
Ca (time 14 day): 11.2 mg/dL
Cl (time 14 day): 105.2 meq/L
DBIL (time 14 day): 0.004 mg/dL
GLC (time 14 day): 184 mg/dL
IP (time 14 day): 7.1 mg/dL
K (time 14 day): 4 meq/L
LDH (time 14 day): 78.2 IU/L
Na (time 14 day): 144 meq/L
PL (time 14 day): 143.2 mg/dL
RALB (time 14 day): 2.7 g/dL
TBIL (time 14 day): 0.032 mg/dL
TC (time 14 day): 68.6 mg/dL
TG (time 14 day): 108.6 mg/dL
TP (time 14 day): 5.9 g/dL
gamma-GTP (time 14 day): 1 IU/L
A/G (time 28 day): 0.8
ALP (time 28 day): 1171.8 IU/L
ALT (time 28 day): 32.4 IU/L
AST (time 28 day): 58.2 IU/L
BUN (time 28 day): 14.8 mg/dL
CRE (time 28 day): 0.3 mg/dL
Ca (time 28 day): 11.1 mg/dL
Cl (time 28 day): 105.2 meq/L
DBIL (time 28 day): 0.006 mg/dL
GLC (time 28 day): 192.8 mg/dL
IP (time 28 day): 6.9 mg/dL
K (time 28 day): 4 meq/L
LDH (time 28 day): 104 IU/L
Na (time 28 day): 144.4 meq/L
PL (time 28 day): 133.8 mg/dL
